Measured values reported in patent US12466849B2, “Anti-viral and anti-tumoral compounds” (YEDA RESEARCH AND DEVELOPMENT CO. LTD, priority 2020, dated 2025).
Where two headings read alike, the source gives them in different places. Residues, ends and D or L forms follow the SMILES beside them. *: point of attachment. Cbz = O=C(OCc1ccccc1)*; CH2F = FC*

Tests used:
[1] = system: HCMV AD169; assay: HCMV plaque reduction assay, MRC-5 cells, strain AD169; type: cell-based, Human cytomegalovirus
[2] = system: HFF cells; assay: Cell proliferation assay, human foreskin fibroblast (HFF) cells; type: cell-based; details: Homo sapiens, 72 h, cell number
[3] = system: BK virus (BKV), Gardner strain; design: SI50 / SI90: unit not given beside the values
[4] = system: JC virus (JCV)
[5] = human
[6] = rat; for Peak area ratio, parent: 1 µM
[7] = in vivo; details: male, Sprague-Dawley, rat; for AUC(0-inf): AUCInf; for AUC(0-t): AUClast
[8] = in vitro; details: human
[9] = in vitro; details: African green monkey
[10] = in vitro; details: human; remark: listed apart in the source
[11] = in vitro; details: rat
[12] = in vitro; details: both, human, plasma
[13] = in vitro; details: male, SD, rat, plasma
[14] = in vitro; details: human; remark: listed apart in the source
[15] = system: BK virus (BKV), Gardner strain; assay: microbe, parasite or virus in culture; details: Betapolyomavirus hominis, HFF
[16] = system: JC virus (JCV); assay: microbe, parasite or virus in culture; details: JC polyomavirus, COS-7
[17] = Secondary JCV assay (qPCR), COS7 cells; details: African green monkey
[18] = system: JC virus (JCV); assay: Secondary JCV assay (qPCR), COS7 cells
[19] = MRC-5 cytotoxicity assay (MTS) and visual cytotoxicity; details: human
[20] = Rat plasma pharmacokinetics after IV infusion and PO dose; details: rats; 10 mg/kg IV 2-h infusion and PO
[21] = system: Epstein-Barr virus (EBV), Akata strain; design: SI50 / SI90: unit not given beside the values
[22] = system: MOLT-3 cells; details: human, 7 d
[23] = system: Epstein-Barr virus (EBV), Akata strain; assay: microbe, parasite or virus in culture; details: human gammaherpesvirus 4, Akata, 72 h
[24] = system: MERS-CoV (EMC); type: cell-based; details: SI = CC50/EC50
[25] = system: SARS-CoV-2 (USA-WA1/2020); type: cell-based; details: compound replenished daily, SI = CC50/EC50
[26] = system: SARS-CoV-2 (USA-WA1/2020); details: for SI50 (SI): SARS-CoV-2, SI = CC50/EC50
[27] = system: influenza/California/07/2009 (H1N1)pdm09
[28] = system: Influenza B/Florida/4/2006 (Yamagata)
[29] = system: enterovirus-68 (EV-68, US/DY/14-18953)
[30] = system: respiratory syncytial virus (RSV, A2)
[31] = system: Tacaribe virus (TCRV, TRVL-11573); design: SI50 (SI): unit not given beside the values
[32] = system: dengue virus-2 (DENV-2, New Guinea C); details: SI = CC50/EC50
[33] = system: SARS-CoV
[34] = system: SARS-CoV-2

For CCCCCCCCCCCCCCCCOCCCOP(=O)(O)OCC1=C[C@H](O)[C@H](n2cnc3c(=O)[nH]c(N)nc32)O1 [AB23040], the EC50 ([1]; Human betaherpesvirus 5, 144 h, hCMV AD169, MRC5 cells, plaque assay, 6-days duration) was 22.1 µM, the “antiviral activity against hCMV (in words)” value ([1]; MRC5 cells, AD169 strain) was “impressive antiviral activity” and the “Selectivity Index (CC50/EC50)” value ([1]; hCMV AD169, MRC5 cells) was over 4.52. The IC50 [2] was 65.9 µM, the Activity [3] was “LO (key: NA (Not Active) SI50 = 0-3.9; LO (Slightly Active) SI50 = 4-9.9; MOD (Moderately Active) SI50 = 10-19.9; HI (Highly Active) SI50 = ≥20)” and the “activity against BK virus (in words)” value [3] was “Low activity”. The Activity [4] was “LO (key: NA (Not Active) SI50 = 0-3.9; LO (Slightly Active) SI50 = 4-9.9; MOD (Moderately Active) SI50 = 10-19.9; HI (Highly Active) SI50 = ≥20)”, the “activity against JC virus (in words)” value [4] was “Low activity” and the CLhep ([5]; 1 μM) was 10.6 mL/min/kg. For the same compound, the Eh ([5]; 1 μM) was 24%, the “Peak area ratio, parent” value ([5]; 15 min, 1 μM) was 1.33E−01 and the “Peak area ratio, parent” value ([5]; 60 min, 1 μM) was 1.05E−01. For the same compound, the “hydrolytic stability in hepatic S9 (in words)” value ([5]; s9) was “least stable”, the T1/2 ([5]; s9, 1 μM) was 3.32 h and the CLhep ([6]; 1 μM) was 18.7 mL/min/kg. The Eh ([6]; 1 μM) was 21%, the “Peak area ratio, parent” value ([6]; 15 min) was 1.16E−01 and the “Peak area ratio, parent” value ([6]; 60 min) was 1.11E−01. The “hydrolytic stability in hepatic S9 (in words)” value ([6]; s9) was “least stable”, the T1/2 ([6]; s9, 1 μM) was 3.95 h and the concentration at 0.5 h ([7]; iv, 10 mg/kg) was 2670 nM. The concentration at 1 h ([7]; iv, 10 mg/kg) was 3260 nM, the concentration at 2 h ([7]; iv, 10 mg/kg) was 4070 nM and the concentration at 4 h ([7]; iv, 10 mg/kg) was 133 nM. The concentration at 8 h ([7]; iv, 10 mg/kg) was 13 nM, the concentration at 24 h ([7]; iv, 10 mg/kg) was 5 nM and the concentration at 72 h ([7]; iv, 10 mg/kg) was 4 nM. The AUC(0-inf) ([7]; iv, 10 mg/kg) was 9.13 µM·h, the AUC(0-t) ([7]; iv, 10 mg/kg) was 9.12 µM·h and the clearance ([7]; iv, 10 mg/kg, CL) was 28.3 mL/min/kg. The Cmax ([7]; iv, 10 mg/kg, Cmax) was 3650 nM, the half-life ([7]; iv, 10 mg/kg, Terminal t1/2) was 37 h and the half-life ([7]; iv, 10 mg/kg, t1/2) was 0.8 h. The Tmax ([7]; iv, 10 mg/kg) was 2 h, the half-life ([7]; iv, t1/2 in plasma) was under 1 h and the bioavailability ([7]; po, 10 mg/kg) was 4%. For the same compound, the concentration at 0.5 h ([7]; po, 10 mg/kg) was 38 nM, the concentration at 1 h ([7]; po, 10 mg/kg) was 58 nM and the concentration at 2 h ([7]; po, 10 mg/kg) was 77 nM. The concentration at 4 h ([7]; po, 10 mg/kg) was 30.4 nM, the concentration at 8 h ([7]; po, 10 mg/kg) was 24 nM and the AUC(0-inf) ([7]; po, 10 mg/kg) was 0.503 µM·h. The AUC(0-t) ([7]; po, 10 mg/kg) was 0.387 µM·h, the MRT inf ([7]; po, 10 mg/kg, MRTInf) was 5.2 h and the Tmax ([7]; po, 10 mg/kg) was 2 h. It also gave a CC50 [8] of 25.1 µM, a CC50 [9] of 80.7 µM and a microsomal CLint at 1 μM ([10]; s9) of 7 µL/min/mg. It also gave a half-life at 1 µM ([10]; s9, T1/2) of 4.69 h, a half-life at 1 μM ([10]; s9, T1/2) of 3.31 h and a microsomal CLint at 1 μM ([11]; s9) of 5.8 µL/min/mg. It also gave a half-life at 1 µM ([11]; s9, T1/2) of 5.72 h, a half-life at 1 μM ([11]; s9, T1/2) of 3.95 h and a half-life at 0.75 µM [12] of over 9.32 h. It also gave a half-life at 0.75 μM [12] of over 9.3 h, a half-life at 0.75 µM [13] of over 9.32 h and a half-life at 0.75 μM [13] of over 9.3 h. It also gave a CC50 at 7 d [14] of 112 µM, an EC50 [15] of 4.97 µM and an EC90 [15] of over 6 µM. It also gave an EC50 [16] of 8.85 µM, an EC90 [16] of 28 µM and a CC50 at 7 days [17] of 31.3 µM. The EC50 ([18]; JC polyomavirus, COS-7, 168 h) was 0.37 µM, the EC90 ([18]; JC polyomavirus, COS-7, 168 h) was 18.6 µM and the Activity ([18]; secondary JCV assay, COS7 cells, class by SI50) was “HI (HI (Highly Active) SI50 = ≥20)”. For the same compound, the “antiviral activity against JCV (in words)” value ([18]; secondary testing, COS7 cells) was “high”, the CC50 at 6 days [19] was over 100 µM and the “tolerability / adverse events (AE)” value [20] was “well-tolerated”.
In the case of Nc1ccn(C[C@@H](CO)OCP(=O)(O)O)c(=O)n1 [CDV, Cidofovir, reference compound], the SI50 [21] is reported as over 11, the SI90 [21] is reported as over 3 and the SI50 [3] is reported as over 35. For the same compound, the CC50 [22] was 97 µM, the CC50 [9] was over 150 µM and the CC50 at 7 d [14] was 101 µM. It also gave an EC50 [23] of 9.23 µM, an EC90 [23] of 29.9 µM and an EC50 [15] of 4.62 µM. The EC90 [15] was 106 µM, the EC50 ([15]; 168 h) was 4.3 µM and the EC90 ([15]; 168 h) was 24.1 µM. For the same compound, the EC50 [16] was 5.66 µM and the EC90 [16] was 107 µM.
In the case of CC(C)(C)C(=O)SCCOP(=O)(OCCSC(=O)C(C)(C)C)OCC1=CC(O)C(n2ccc(=O)[nH]c2=O)O1 (stereo not drawn) [SATE-ddhU], the “SI50 (SI)” value [24] is reported as 0, the SI50 [25] is reported as over 6.7 and the Activity [21] is reported as “NA (key: NA (Not Active) SI50 = 0-3.9; MOD (Moderately Active) SI50 = 4-9.9; HI (Highly Active) SI50 = ≥10)”. For the same compound, the CC50 [21] was 109 µM, the EC50 [21] was over 30 µM and the EC90 [21] was over 30 µM. The SI50 [21] was under 4, the SI90 [21] was under 4 and the Activity [3] was “LO (key: NA (Not Active) SI50 = 0-3.9; LO (Slightly Active) SI50 = 4-9.9; MOD (Moderately Active) SI50 = 10-19.9; HI (Highly Active) SI50 = ≥20)”. The CC50 [3] was over 150 µM, the EC50 [3] was 21.3 µM and the EC90 [3] was over 150 µM. It also gave an SI50 [3] of over 7, an SI90 [3] of 1 and a CC50 [26] of 76 µM. The “SI50 (SI)” value [26] was 3.5, the CC50 [27] was 560 µM and the “SI50 (SI)” value ([27]; Influenza(H1N1), SI = CC50/EC50) was 0. The CC50 [28] was 560 µM, the “SI50 (SI)” value ([28]; Influenza B, SI = CC50/EC50) was 0 and the CC50 [29] was over 100 µM. The “SI50 (SI)” value ([29]; EV-68, SI = CC50/EC50) was 0, the CC50 [30] was 180 µM and the “SI50 (SI)” value ([30]; RSV, SI = CC50/EC50) was 0. The CC50 [31] was 170 µM, the “SI50 (SI)” value [31] was 0 and the “SI50 (SI)” value [32] was 0.
For CC(C)CC(NC(=O)OCc1ccccc1)C(=O)NC(CCC(=O)N(C)C)C(=O)CF (stereo not drawn) [M128533, Z-Leu-Gln(NMe2)-FMK, reference compound] (Cbz-Leu-Glu(NMe2)-CH2F; configuration not given here), the “SI50 (SI)” value [24] was over 13, the SI50 [25] was over 260 and the SI ([33]; SARS-CoV, SI = CC50/EC50) was over 1300. It also gave an EQ50 ([33]; SARS-CoV, Vero 76 cells, positive control) of 0.075 µg/mL, a CC50 ([33]; Vero 76 cells without virus, positive control) of over 100 µg/mL and a CC50 [34] of over 100 µg/mL. It also gave an EQ50 [34] of 0.33 µg/mL, an SI ([34]; SARS-CoV-2, SI = CC50/EC50) of over 300 and a CC50 [26] of over 100 µg/mL. The “SI50 (SI)” value [26] was over 1100.
